Two molecules from publication PMC4304211 (Bioorganic & medicinal chemistry, 2013) can be followed below.

In this test the target is STAT3 (Homo sapiens, UniProt P40763). Briefly: fluorescence polarization competition, single concentration […]. It counts as binding. As to conditions: read-out: % inhibition at 500 μM. In general terms: In fluorescence polarisation assays a small probe gives low polarisation when free and higher when bound to something large.
Sequence of STAT3 (P40763 2-770): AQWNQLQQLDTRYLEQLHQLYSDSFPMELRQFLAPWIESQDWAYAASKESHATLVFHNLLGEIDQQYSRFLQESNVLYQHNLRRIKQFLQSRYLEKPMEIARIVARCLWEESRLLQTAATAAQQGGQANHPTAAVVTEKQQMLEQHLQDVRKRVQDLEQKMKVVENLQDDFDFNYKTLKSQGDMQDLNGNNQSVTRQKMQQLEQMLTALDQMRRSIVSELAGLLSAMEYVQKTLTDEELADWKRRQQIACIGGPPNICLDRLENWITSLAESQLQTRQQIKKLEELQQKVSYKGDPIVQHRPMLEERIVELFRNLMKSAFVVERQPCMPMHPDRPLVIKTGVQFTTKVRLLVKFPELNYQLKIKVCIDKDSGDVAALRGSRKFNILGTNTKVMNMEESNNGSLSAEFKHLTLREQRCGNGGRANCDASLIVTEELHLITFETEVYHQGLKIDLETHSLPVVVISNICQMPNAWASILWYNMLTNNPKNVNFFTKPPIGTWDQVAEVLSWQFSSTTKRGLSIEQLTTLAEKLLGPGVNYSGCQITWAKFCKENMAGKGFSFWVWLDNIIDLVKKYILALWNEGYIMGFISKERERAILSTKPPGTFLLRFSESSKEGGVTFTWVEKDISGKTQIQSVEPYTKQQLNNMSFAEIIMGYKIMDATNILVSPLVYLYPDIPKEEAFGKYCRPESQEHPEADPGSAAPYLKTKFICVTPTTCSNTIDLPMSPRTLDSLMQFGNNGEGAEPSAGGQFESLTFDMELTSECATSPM

Regarding `NS(=O)(=O)c1cccc2c1C(=O)C=C(SCCO)C2=O` [PD11, 6-((2-Hydroxyethyl)thio)-5,8-dioxo-5,8-dihydronaphthalene-1-sulfonamide], the inhibition at 500 µM is over 50%.

In the case of `O=C1C=C(SCCO)C(=O)c2c(O)cccc21` [PD10, 8-Hydroxy-2-((2-hydroxyethyl)thio)naphthalene-1,4-dione], the inhibition at 500 µM is over 50%.

As a reminder, the inhibition is the drop in the measured response relative to a control, in per cent.
